{"source": "paper PMC8927147", "about": "“Global profiling of regulatory elements in the histone benzoylation pathway” (Nature Communications, 2022)", "key": {"Sth1BD A1329C": {"target": "T1, Sth1BD A1329C (Saccharomyces cerevisiae, UniProt P32597, A1329C)", "T1 construct": "Sth1BD (residues 1248-1359); 6*His-Sumo (N, cleaved yes); made in house; host or cells: Escherichia coli Rosetta", "T1 sequence (P32597 1248-1359 A1329C)": "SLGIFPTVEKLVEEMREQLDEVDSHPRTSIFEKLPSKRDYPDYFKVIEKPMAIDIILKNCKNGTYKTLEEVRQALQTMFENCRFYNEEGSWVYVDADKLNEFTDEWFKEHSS", "test": "ITC binding of H3K14bz peptide to Sth1BD A1329C mutant", "protocol": "(§1) ITC titrations were performed using a MicroCal ITC200 system (GE Healthcare, USA) at 20 °C. For ITC measurement, peptides and proteins were dialyzed into the same buffer (25 mM Tris-HCl, pH 8.0, 150 mM NaCl). […] For reader-related ITC experiments, peptides at 2.0 mM in the syringe were titrated into Taf14YEATS/Sas5YEATS/Sth1BD at 0.1–0.2 mM in the sample cell. Each titration consisted of 20 successive injections. The titration curves were processed using the Origin 7.0 software program (OriginLab) according to the one-binding-site fitting model. Each titration was repeated twice, and one representative plot was shown in the paper. The dissociation constants (Kd), enthalpy changes (ΔH), and fitting errors were derived from one representative ITC plot."}, "Sth1BD": {"target": "T2, Sth1BD (Saccharomyces cerevisiae, UniProt P32597)", "T2 construct": "Sth1BD (residues 1248-1359); 6*His-Sumo (N, cleaved yes); made in house; host or cells: Escherichia coli Rosetta", "T2 sequence (P32597 1248-1359)": "T1 sequence (P32597 1248-1359 A1329C) with C82A", "test": "ITC binding of H3 peptides to Sth1 bromodomain", "protocol": "as §1"}, "Sas5YEATS": {"target": "T3, Sas5YEATS (Saccharomyces cerevisiae, UniProt Q99314)", "T3 construct": "6*His-Sumo (N, cleaved yes); made in house; host or cells: Escherichia coli Rosetta", "T3 sequence (Q99314 2-139)": "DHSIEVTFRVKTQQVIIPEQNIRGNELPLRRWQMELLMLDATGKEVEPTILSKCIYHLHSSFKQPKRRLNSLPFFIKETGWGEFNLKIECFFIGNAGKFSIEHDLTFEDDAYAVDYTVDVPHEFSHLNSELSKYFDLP", "test": "ITC binding of H3 peptides to Sas5YEATS"}, "Gcn5-Ada2": {"test_system": "Gcn5-Ada2", "test": "DTNB acylation activity assay of Gcn5-Ada2", "format": "biochemical, Saccharomyces cerevisiae", "settings": "250 μM H3 1-18 peptide, pH 7.8, 30 °C", "protocol": "Kinetic measurements comparing rates of acetylation and benzoylation were performed using the 5,5′-dithiobis-(2-bitrobenzoic acid) (DTNB, D218200-1G, Sigma) assay. Reactions contained 2 μM Gcn5-Ada2, 250 μM H3 peptide amino acids 1-18 ([…]), 100 mM HEPES pH7.8, 50 mM NaCl and 500 μM acetyl-CoA or benzoyl-CoA. Each reaction was incubated for 5 min at 30 °C before adding acyl-CoA to start the reaction. The reaction was quenched at the indicated time points by adding two volumes of freshly prepared quenching buffer (3.2 M guanidine-HCl, 100 mM sodium phosphate pH 6.8). The samples were added to one volume of 4 mM DTNB dissolved in 100 mM sodium phosphate (pH 6.8) and transferred to a 384-well polystyrene clear-bottom plate (CORNING, 3680), and the absorbance at 412 nm was measured in a Bio-TEK plate reader. Absorbances were converted to concentrations using a standard curve generated by HSCOA standards. The acetylation reaction was quenched after 0.5, 1.0, 1.5, 2.0, and 2.5 min, and the benzoylation reaction was quenched after 1, 2, 3, and 4 h. All acylation rates were corrected by subtracting the rate of acyl-CoA consumption by Gcn5-Ada2 in the absence of peptide. The acetylation assays were performed in triplicate, but the benzoylation assay was not repeated due to the limitation of materials."}, "BY4742 cells": {"test_system": "BY4742 cells", "test": "Western blot of histone Kbz and Kac levels in yeast treated with sodium benzoate", "format": "cell-based, Saccharomyces cerevisiae", "settings": "BY4742 cells in YPD at log phase, sodium benzoate added for 6 h, histones extracted; pan anti-Kbz and anti-Kac", "from_the_text": "Anti-Kbz (PTM Biolabs Inc., PTM-762, 1:1000, Lot^# 1314381619I926), anti-Kac (Cell signal, 9441 S, 1:1000, Lot^# 14), anti-H3N (Active motif, 39763, 1:700, Lot^# 20418023), anti-H4 (Active motif, 61521, 1:3000, Lot^# 31416005), and anti-tubulin (Sigma, T6199, 1:3000, Lot^# 048M4751V) antibodies were used in this study. The HRP secondary antibody and the fluorescent secondary antibodies were used: Peroxidase AffiniPure Goat Anti-Mouse IgG (Jackson ImmunoResearch, 1:5000, 115-035-003), Peroxidase AffiniPure Goat Anti-Rabbit IgG (Jackson ImmunoResearch, 1:5000, 111-035-003), IRDye 800CW goat anti-rabbit IgG (LI-COR P/N 923-32211, 1:5000, Lot^# D00304-15) and IRDye 680RD goat anti-Mouse IgG (LI-COR P/N 926-68070, 1:10000, Lot^# D01014-04). The fluorescent western blots were detected on Odyssey CLx (LI-COR) and quantified by Image Studio (ver. 5.2.5).\nTypically, 100 mg yeast cell pellets were harvested and suspended in 1 ml buffer A (1 M sorbitol, 50 mM Tris-HCl, pH 7.5, 5 mM MgCl2, 5 mM 2-mercaptoethanol) and centrifuged for 5 min at 900 g. Then, the pellet was resuspended in 1 ml buffer A with 60 μl zymolyase. […] The concentration of histones was measured by a BCA Protein Assay Kit (TIANGEN, PA115-01, China). The samples were analyzed by western blot or by mass spectrometry."}}, "note": "Positions count from the first letter of the chain named. Peptide text beside a SMILES is read from it. * marks the point of attachment. Bz = O=C(c1ccccc1)*", "data": [{"smiles": "CC(C)C[C@H](NC(=O)[C@H](CCC(N)=O)NC(=O)[C@H](CCCCN)NC(=O)[C@H](CCCNC(=N)N)NC(=O)[C@@H]1CCCN1C(=O)[C@H](C)NC(=O)[C@H](CCCCNC(=O)c1ccccc1)NC(=O)CNC(=O)CNC(=O)[C@@H](NC(=O)[C@H](CO)NC(=O)[C@H](CCCCN)NC(=O)[C@H](CCCNC(=N)N)NC(=O)[C@H](C)NC(=O)[C@@H](N)[C@@H](C)O)[C@@H](C)O)C(=O)N[C@@H](C)C(=O)N[C@@H](CO)C(=O)N[C@@H](Cc1ccc(O)cc1)C(=O)O", "note": "[H3K14bz] (H-TARKSTGGK(Bz)APRKQLASY-OH)", "values": [{"measurement": "Kd", "setting": "Sth1BD A1329C", "result": "187 ± 29.8", "unit": "µM"}, {"measurement": "Kd", "setting": "Sth1BD", "result": "88.5 ± 12.4", "unit": "µM"}]}, {"smiles": "CC(C)C[C@H](NC(=O)[C@H](CCC(N)=O)NC(=O)[C@@H](N)CCCCN)C(=O)N[C@@H](C)C(=O)N[C@@H](CO)C(=O)N[C@@H](CCCCN)C(=O)N[C@@H](C)C(=O)N[C@@H](C)C(=O)N[C@@H](CCCNC(=N)N)C(=O)N[C@@H](CCCCNC(=O)c1ccccc1)C(=O)N[C@@H](CO)C(=O)N[C@@H](C)C(=O)N1CCC[C@H]1C(=O)N[C@@H](CO)C(=O)N[C@H](C(=O)NCC(=O)NCC(=O)N[C@H](C(=O)N[C@@H](CCCCN)C(=O)N[C@@H](Cc1ccc(O)cc1)C(=O)O)C(C)C)[C@@H](C)O", "note": "[H3K27bz] (H-KQLASKAARK(Bz)SAPSTGGVKY-OH)", "values": [{"measurement": "Kd", "setting": "Sth1BD", "result": 386, "unit": "µM"}, {"measurement": "Kd", "setting": "Sas5YEATS", "result": "92.6 ± 5.63", "unit": "µM"}]}, {"smiles": "CC(=O)SCCNC(=O)CCNC(=O)[C@H](O)C(C)(C)COP(=O)(O)OP(=O)(O)OC[C@H]1O[C@@H](n2cnc3c(N)ncnc32)[C@H](O)[C@@H]1OP(=O)(O)O", "note": "[acetyl-CoA]", "values": [{"measurement": "acetylation rate", "setting": "Gcn5-Ada2; 2 μM Gcn5-Ada2, 500 μM acetyl-CoA, n = 3", "result": 10.35, "unit": "µM/min"}]}, {"smiles": "CC(C)(COP(=O)(O)OP(=O)(O)OC[C@H]1O[C@@H](n2cnc3c(N)ncnc32)[C@H](O)[C@@H]1OP(=O)(O)O)[C@@H](O)C(=O)NCCC(=O)NCCSC(=O)c1ccccc1", "note": "[benzoyl-CoA]", "values": [{"measurement": "benzoylation rate", "setting": "Gcn5-Ada2; 2 μM Gcn5-Ada2, 500 μM benzoyl-CoA, single experiment", "result": 1.19, "unit": "µM/h"}]}, {"smiles": "O=C([O-])c1ccccc1.[Na+]", "note": "[sodium benzoate]", "values": [{"measurement": "effect on histone Kbz and Kac signals (western blot)", "setting": "BY4742 cells", "result": "significantly enhanced the Kbz and Kac signals on yeast histones in a dose-dependent manner"}]}]}
